Test results published in ChEMBL document CHEMBL5634072, “The recent advance of Interleukin-1 receptor associated kinase 4 inhibitors for the treatment of inflammation and related diseases” (Eur J Med Chem, 2023).
Each block holds one compound with its values, some of them ahead of it.

Experiments:
[1] = target: Protein cereblon/Interleukin-1 receptor-associated kinase 4 (Homo sapiens, UniProt Q96SW2+Q9NWZ3); test: Binding affinity to CRBN/IRAK4 in human PBMC cells assessed as inhibition of LPS-stimulated IL-6 production incubated for 24 hrs by MSD analysis; format: cell-based
[2] = target: T1, Interleukin-1 receptor-associated kinase 4 (Homo sapiens, UniProt Q9NWZ3); test: Inhibition of IRAK4 (unknown origin)
T1 sequence (Q9NWZ3 whole entry): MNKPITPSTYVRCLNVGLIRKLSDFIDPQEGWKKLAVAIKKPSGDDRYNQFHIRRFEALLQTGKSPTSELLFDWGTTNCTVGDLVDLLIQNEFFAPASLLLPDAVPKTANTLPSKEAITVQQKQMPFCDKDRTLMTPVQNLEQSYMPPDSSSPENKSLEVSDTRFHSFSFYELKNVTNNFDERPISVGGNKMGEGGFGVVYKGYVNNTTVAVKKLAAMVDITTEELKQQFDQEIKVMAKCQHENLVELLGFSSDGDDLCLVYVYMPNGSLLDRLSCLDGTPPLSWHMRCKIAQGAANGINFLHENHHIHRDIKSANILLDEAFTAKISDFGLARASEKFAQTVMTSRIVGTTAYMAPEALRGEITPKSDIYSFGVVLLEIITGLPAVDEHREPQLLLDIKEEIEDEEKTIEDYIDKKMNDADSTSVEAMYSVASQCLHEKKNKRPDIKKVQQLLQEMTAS

[3] = target: T1, Interleukin-1 receptor-associated kinase 4; test: Inhibition of IRAK4 (unknown origin) by Ambit kinase assay
[4] = target: Interleukin-1 receptor-associated kinase 1 (Homo sapiens, UniProt P51617); test: Inhibition of IRAK1 (unknown origin) by Ambit kinase assay
[5] = target: T2, Protein cereblon/Interleukin-1 receptor-associated kinase 4 (Homo sapiens) (UniProt Q9NWZ3+Q96SW2); test: PROTAC activity at CRBN/IRAK4 in human PBMC cells assessed as induction of degradation at 1 uM measured after 24 hrs by Immuno-blotting analysis relative to control; format: cell-based
[6] = target: T2, Protein cereblon/Interleukin-1 receptor-associated kinase 4 (Homo sapiens); test: PROTAC activity at CRBN/IRAK4 in human PBMC cells assessed as induction of degradation at 0.01 uM measured after 24 hrs by Immuno-blotting analysis relative to control; format: cell-based
[7] = target: T2, Protein cereblon/Interleukin-1 receptor-associated kinase 4 (Homo sapiens); test: PROTAC activity at CRBN/IRAK4 in human PBMC cells assessed as induction of degradation at 0.1 uM measured after 24 hrs by Immuno-blotting analysis relative to control; format: cell-based
Cyclic GMP-AMP synthase = Cyclic GMP-AMP synthase (Homo sapiens, UniProt Q8N884); test: Inhibition of cyclic GMP-AMP synthase (unknown origin)
[8] = target: T1, Interleukin-1 receptor-associated kinase 4; test: Inhibition of IRAK4 (unknown origin) by discoverX kinome scan assay

Sequence of Protein cereblon/Interleukin-1 receptor-associated kinase 4 (Q96SW2 whole entry, one chain of several): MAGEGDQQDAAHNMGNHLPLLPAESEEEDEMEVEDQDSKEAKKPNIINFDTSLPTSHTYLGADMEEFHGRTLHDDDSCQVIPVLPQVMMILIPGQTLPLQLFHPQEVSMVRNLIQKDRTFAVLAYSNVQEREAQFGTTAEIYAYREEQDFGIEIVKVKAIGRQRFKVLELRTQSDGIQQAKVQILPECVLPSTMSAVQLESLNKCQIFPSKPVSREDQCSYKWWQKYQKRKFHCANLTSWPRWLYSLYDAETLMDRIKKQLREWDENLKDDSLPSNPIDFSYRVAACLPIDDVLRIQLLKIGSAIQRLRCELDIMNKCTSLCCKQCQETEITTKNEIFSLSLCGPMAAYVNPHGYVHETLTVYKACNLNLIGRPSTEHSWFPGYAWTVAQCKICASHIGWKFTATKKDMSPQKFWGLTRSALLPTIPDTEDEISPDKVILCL
T2 sequence (Q96SW2 whole entry, looked up, one chain of several): as the sequence (Q96SW2 whole entry, one chain of several) above
Sequence of Interleukin-1 receptor-associated kinase 1 (P51617 whole entry): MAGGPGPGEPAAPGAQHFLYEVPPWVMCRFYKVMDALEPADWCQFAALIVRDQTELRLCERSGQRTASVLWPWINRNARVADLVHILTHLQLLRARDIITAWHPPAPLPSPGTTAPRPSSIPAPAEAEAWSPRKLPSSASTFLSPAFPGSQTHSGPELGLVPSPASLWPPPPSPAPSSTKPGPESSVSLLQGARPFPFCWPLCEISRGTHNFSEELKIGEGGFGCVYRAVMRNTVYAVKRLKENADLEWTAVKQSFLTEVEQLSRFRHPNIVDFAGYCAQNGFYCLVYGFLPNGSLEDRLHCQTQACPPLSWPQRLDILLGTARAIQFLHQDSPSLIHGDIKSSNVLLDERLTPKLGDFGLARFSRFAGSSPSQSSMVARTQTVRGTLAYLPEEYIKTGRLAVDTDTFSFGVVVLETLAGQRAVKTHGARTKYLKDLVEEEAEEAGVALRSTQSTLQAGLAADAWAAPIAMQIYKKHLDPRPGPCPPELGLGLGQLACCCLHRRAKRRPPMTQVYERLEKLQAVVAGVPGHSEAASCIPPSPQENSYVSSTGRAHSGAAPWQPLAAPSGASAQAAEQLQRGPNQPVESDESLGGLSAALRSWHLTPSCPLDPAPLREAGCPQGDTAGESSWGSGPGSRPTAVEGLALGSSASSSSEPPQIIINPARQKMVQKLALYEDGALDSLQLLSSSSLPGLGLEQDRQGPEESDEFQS
Sequence of Cyclic GMP-AMP synthase (Q8N884 whole entry): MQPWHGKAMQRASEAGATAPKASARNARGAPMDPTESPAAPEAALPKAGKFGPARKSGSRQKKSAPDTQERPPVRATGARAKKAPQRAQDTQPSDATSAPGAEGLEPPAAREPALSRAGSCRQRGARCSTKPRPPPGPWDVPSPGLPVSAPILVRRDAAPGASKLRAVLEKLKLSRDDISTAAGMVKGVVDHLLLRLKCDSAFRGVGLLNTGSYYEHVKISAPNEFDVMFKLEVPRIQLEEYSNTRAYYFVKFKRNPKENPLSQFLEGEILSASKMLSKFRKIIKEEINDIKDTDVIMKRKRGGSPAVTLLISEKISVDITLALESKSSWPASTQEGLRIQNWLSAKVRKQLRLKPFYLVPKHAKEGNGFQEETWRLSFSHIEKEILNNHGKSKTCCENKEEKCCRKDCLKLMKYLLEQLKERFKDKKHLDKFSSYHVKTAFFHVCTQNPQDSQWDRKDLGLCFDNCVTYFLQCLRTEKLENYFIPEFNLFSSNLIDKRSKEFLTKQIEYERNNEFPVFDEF

IC50 [1]: < 0.1 µM
SMILES: Cn1cc2c(n1)C(=O)NCCn1cc(cn1)-c1ccc(=O)n(n1)Cc1cccc(c1)C(=O)N2

IC50 [1]: < 0.1 µM
SMILES: O=C1Nc2nc3ccccc3n2Cc2cc(ccn2)-c2ccc(=O)n(n2)Cc2cccc1c2

IC50 [2]: < 0.01 µM
SMILES: CC(C)CCNC(=O)c1ccc2c(c1)nc(Nc1n[nH]c3ccc(-c4ccccc4OC(F)(F)F)cc13)n2C1CCC(O)CC1 (centres undefined)

IC50 [3]: 0.0016 µM
SMILES: CC(C)(O)CCn1cc2cc(NC(=O)c3cccc(C(F)(F)F)n3)c(C3COC3)cc2n1

IC50 [2]: 0.165 µM
SMILES: O=C(Nc1ccc(CN2CCNCC2)c(C(F)(F)F)c1)c1cccc(-c2ccc3nc(NC(=O)C4CC4)sc3n2)c1

IC50 [4]: < 5 µM
SMILES: CN(C)[C@H]1CC[C@H](Oc2ncnc3sc4c(c23)[C@@H](CCC#N)CC4)CC1

IC50 [3]: 0.00055 µM
SMILES: Cc1cc(-c2nc(C(=O)Nc3cc4cn(CCC(C)(C)O)nc4cc3C(C)(C)O)co2)ccn1

Activity [5]: > 50%
Activity [6]: < 20%
Activity [7]: > 20%
SMILES: O=C1CCC(N2C(=O)c3cccc(NCc4cn(CCCNC(=O)c5ccc(-n6cc(NC(=O)c7coc(-c8ccnc(NCC9CC9)c8)n7)c(C(F)(F)F)n6)cc5)cn4)c3C2=O)C(=O)N1 (centres undefined)

IC50 [1]: 0.1 µM
SMILES: Cn1cc2c(n1)C(=O)NCC1CN(CCO1)C(=O)OCCn1cc(cn1)-c1cccc(n1)C(=O)N2 (centres undefined)

IC50 (Cyclic GMP-AMP synthase): 0.0021 µM
SMILES: Cc1ccn2c(C(=O)C(=O)c3ccccc3)c(-c3ccccc3)nc2c1

IC50 [8]: 0.001 µM
SMILES: O=C1Nc2cn(C3CCOCC3)nc2C(=O)NCCOCCCc2cc(ccn2)-c2nc1cs2

EC50 [2]: 0.195 µM
SMILES: CCO[C@H]1CC[C@@H](n2cc(NC(=O)c3csc(-c4cn[nH]c4)n3)c(-c3nc(F)ccc3F)n2)CC1
